According to PMC9525273 (Nature Communications, 2022):

Key:
Dd2-B2 parasites = experiment: P. falciparum proliferation assay (72 h, flow cytometry, SYBR Green I/MitoTracker); format: cell-based; conditions: Plasmodium falciparum, DD2, read-out: IC50 value
Procedure: (§1) Two types of parasite proliferation assays were employed in this study, with both yielding highly consistent results. For the NF54-based lines and Dd2-B2-PfATP4^G358S and its parent, assays were initiated with cultures containing predominantly ring-stage parasites with a parasitaemia of 0.3% and a haematocrit of 1%. All assays using NF54 were performed in culture media containing 10% O + human serum. The duration of the assays was 72 h and the concentration of DMSO was <0.5% (v/v). Serial dilutions of the test compounds were performed using a Tecan D300e digital dispenser, with parasite cultures added manually. Parasite survival was assessed by flow cytometry on an Intellicyt iQue3 (Essen Bioscience), with 1× SYBR Green I (Invitrogen) and 200 nM MitoTracker Deep Red FM (Invitrogen) used to stain the nucleus and the mitochondria in live parasites, respectively. The gating strategy used to quantify parasite survival, performed using FlowJo version 10 (FlowJo LLC.), is illustrated in Supplementary Fig. 9. IC50 and IC90 values were calculated by linear interpolation of the dose-response data.

[1] = test system: Dd2-B2-PfATP4^G358S parasites; experiment: as above; format: cell-based; conditions: Plasmodium falciparum; Dd2-B2-PfATP4G358S; mean ± SEM
Procedure: as §1

[2] = test system: parasite lines with a G358S mutation in PfATP4; experiment: P. falciparum proliferation assays, statements on all lines with the G358S mutation; format: cell-based, Plasmodium falciparum
Procedure: as §1
For experiments with all other parasites, the effects of compounds of interest on parasite proliferation was measured in 96-well plates containing serial dilutions of the compounds in culture medium, with a fluorescent DNA-intercalating dye used to detect surviving parasites. The assays were initiated with erythrocytes infected with predominantly ring-stage parasites, and the starting parasitaemia and haematocrit were both 1%. […] Fluorescence was measured using a FLUOstar OPTIMA plate reader (BMG LABTECH), with OPTIMA version 2.20R2 and MARS Data Analysis Software version 3.01 R2 (BMG LABTECH).

[3] = biological target: T1, TgATP4^G419S-HA (membranes from T. gondii tachyzoites) (Toxoplasma gondii, UniProt B9QMJ0, G419S); experiment: Membrane ATPase assay, ATP4-associated (Na+-dependent) ATPase activity; format: biochemical; conditions: for IC50 for ATP4-associated ATPase activity: membranes from TgATP4G419S-HA, mean ± SEM
T1 sequence (B9QMJ0 1-1338 G419S): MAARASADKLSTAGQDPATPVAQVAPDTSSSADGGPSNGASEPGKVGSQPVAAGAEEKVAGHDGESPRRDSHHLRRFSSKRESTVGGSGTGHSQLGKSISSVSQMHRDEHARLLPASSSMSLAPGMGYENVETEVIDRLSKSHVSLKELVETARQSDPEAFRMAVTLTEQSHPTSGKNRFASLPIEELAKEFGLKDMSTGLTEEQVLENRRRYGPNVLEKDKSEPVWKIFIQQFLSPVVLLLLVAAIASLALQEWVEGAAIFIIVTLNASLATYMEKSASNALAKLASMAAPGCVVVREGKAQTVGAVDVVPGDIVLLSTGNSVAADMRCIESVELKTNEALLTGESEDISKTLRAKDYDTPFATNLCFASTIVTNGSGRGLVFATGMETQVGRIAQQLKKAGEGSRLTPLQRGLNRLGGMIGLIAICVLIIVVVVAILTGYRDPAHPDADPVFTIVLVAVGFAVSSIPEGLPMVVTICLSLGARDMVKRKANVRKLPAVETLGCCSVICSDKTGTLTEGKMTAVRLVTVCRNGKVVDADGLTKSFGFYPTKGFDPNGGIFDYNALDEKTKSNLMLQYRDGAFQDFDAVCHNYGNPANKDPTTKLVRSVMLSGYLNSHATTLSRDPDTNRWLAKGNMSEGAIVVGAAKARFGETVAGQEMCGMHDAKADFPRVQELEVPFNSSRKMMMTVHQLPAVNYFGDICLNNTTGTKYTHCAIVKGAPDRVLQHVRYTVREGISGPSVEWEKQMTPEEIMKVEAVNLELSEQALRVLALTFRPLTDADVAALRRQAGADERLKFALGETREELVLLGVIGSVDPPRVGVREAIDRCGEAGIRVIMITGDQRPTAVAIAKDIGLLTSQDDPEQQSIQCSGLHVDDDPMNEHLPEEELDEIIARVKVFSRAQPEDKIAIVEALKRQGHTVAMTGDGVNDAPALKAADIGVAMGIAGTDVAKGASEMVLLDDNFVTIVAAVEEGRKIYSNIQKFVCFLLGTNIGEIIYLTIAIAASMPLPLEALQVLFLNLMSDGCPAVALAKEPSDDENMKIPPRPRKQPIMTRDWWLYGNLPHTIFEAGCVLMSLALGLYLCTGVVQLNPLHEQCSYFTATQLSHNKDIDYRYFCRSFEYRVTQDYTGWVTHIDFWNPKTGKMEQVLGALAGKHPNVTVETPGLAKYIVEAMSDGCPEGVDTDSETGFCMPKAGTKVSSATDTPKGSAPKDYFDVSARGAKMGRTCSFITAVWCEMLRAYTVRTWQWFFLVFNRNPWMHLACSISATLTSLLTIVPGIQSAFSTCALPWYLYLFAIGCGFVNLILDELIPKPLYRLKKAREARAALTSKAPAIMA
Procedure: Membranes from isolated P. falciparum or extracellular T. gondii parasites were prepared by lysing parasites in ice-cold deionized water containing a 1:500 dilution of Protease Inhibitor Cocktail Set III (Merck Millipore), then washing the membrane preparation three times in ice-cold deionized water (with protease inhibitors present for the first two washes)[15]. Protein concentrations in the membrane preparations were measured using a Bradford assay. The PiColorLock Gold Phosphate Detection System (Innova Biosciences) was used to measure the production of Pi from hydrolysis of ATP[15]. Membrane preparations were diluted in either a high Na^+ solution (yielding final conditions in the reactions of 150 mM NaCl, 20 mM KCl, 2 mM MgCl2, 50 mM Tris, pH 7.2) or a Na^+-free solution (yielding final conditions of 150 mM choline chloride, 20 mM KCl, 2 mM MgCl2, 50 mM Tris, pH 7.2) to achieve a total protein concentration of 50 μg/mL. […] The reactions were performed at 37 °C, and were initiated by the addition of 1 mM ATP (Na2ATP۰3H2O; MP Biomedicals) and terminated 10 min later by adding 100 μL of reaction mixture (in duplicate) to 25 μL “Gold mix” in a 96-well plate. “Stabiliser” was added 3 min later, and the plates incubated at room temperature in the dark for 60 min before measuring absorbance at 635 nm. Background values (averaged from wells containing all components, but to which ATP was not added until after the membrane was exposed to Gold mix) were subtracted from the data. For each treatment, the ATPase activity associated with the (Na^+-dependent) PfATP4 and TgATP4 proteins was calculated by subtracting data obtained in the low Na^+ condition (containing only the 2 mM Na^+ introduced on addition of 1 mM Na2ATP) from that obtained in the high Na^+ condition.

[4] = TgATP4G419S-HA membranes, source data of Table 1 (nM there)

| Compound | IC50 (Dd2-B2 parasites) [nM] | IC50 [1] [nM] | IC50 ([2]; Plasmodium falciparum, all parasite lines with a G358S mutation in PfATP4 tested in this study) [nM] | IC50 for inhibition of ATP4-associated ATPase activity, MEAN [3, 4] | IC50 for inhibition of ATP4-associated ATPase activity ([3]; TgATP4G419S-HA membranes, single experiments, source data of Table 1 (nM there)) | IC50 for ATP4-associated ATPase activity [3] | effect of the G358S mutation in PfATP4 on parasite susceptibility ([2]; G358S lines vs PfATP4 wild-type controls) |
| --- | --- | --- | --- | --- | --- | --- | --- |
| N#Cc1cc(NC(=O)[C@H]2c3ccccc3C(=O)N(CC(F)(F)F)[C@@H]2c2cccnc2)ccc1F [(+)-SJ733] | 122 ± 7 | 23000 ± 3200 | > 9000 | >4000 | >4000 | > 4000 (3) nM | – |
| C[C@H]1Cc2c([nH]c3cc(Cl)c(F)cc23)[C@@]2(N1)C(=O)Nc1ccc(Cl)cc12 [Cipargamin] | 2.17 ± 0.24 | 1640 ± 80 | – | 287.6 | – | 288 ± 111 (4) (P = 0.05) nM | – |
| C[C@H]1[C@@H](O)O[C@@H]2O[C@@]3(C)CC[C@H]4[C@H](C)CC[C@@H]1[C@@]24OO3 [Dihydroartemisinin] | – | – | – | – | – | – | no effect |
